pIC50: −log10 of the molar value. Values belong to the compound of their own block, whether it stands above or below them.
Tests used:
mouse PLA2 IB enzyme = mouse PLA2 IB enzyme (Mus musculus, UniProt Q9Z0Y2); details: pyrene substrate release from vesicles; Singer, Ghomashchi et al. 2002; read-out: IC50 value versus the mouse PLA2 IB enzyme; cited from earlier work
stability at low pH = assay type: physicochemical; details: predicted to survive passage through the stomach
[1] = pharmokinetic study of ILY-4001, IV and oral (Example 6C); assay type: in vivo, mice; details: 30 mg/kg oral
Procedure: This example evaluated the bioavailability of ILY-4001 [2-(3-(2-amino-2-oxoacetyl)-1-(biphenyl-2-ylmethyl)-2-methyl-1H-indol-4-yloxy)acetic acid], alternatively referred to herein as methyl indoxam. Specifically, a pharmokinetic study was conducted to determine the fraction of unchanged ILY-4001 in systemic circulation following administration.
Bioavailability was calculated as a ratio of AUC-oral/AUC-intravenous (IV). To determine this ratio, a first set of subject animals were given a measured intravenous (IV) dose of ILY-4001, followed by a determination of ILY-4001 levels in the blood at various time points after administration (e.g., 5 minutes through 24 hours). Another second set of animals was similarly dosed using oral administration, with blood levels of ILY-4001 determined at various time points after administration (e.g., 30 minutes through 24 hours). The level of ILY-4001 in systemic circulation were determined by generally accepted methods (for example as described in Evans, G., A Handbook of Bioanalysis and Drug Metabolism. Boca Raton, CRC Press (2004)). Specifically, […]/mass spectrometry/mass spectrometry (LC/MS/MS) analytical methods were used to quantitate plasma concentrations of ILY-4001 after oral and intravenous administration. Pharmacokinetic parameters that were measured include Cmax, AUC, tmax, t1/2, and F (bioavailability). […]

Caco-2 monolayers = assay: in-vitro Caco-2 permeability study (Example 6B); assay type: in vitro ADME, human
Procedure: The culture medium was refreshed every 48 hours.
Papp=(dQ/dt)X(1/C0)X(1/A)

[2] = system: C57BL/6 wild-type mice on high fat/high sucrose diabetogenic diet; assay: in-vivo evaluation in mice on high fat/high sucrose diabetogenic diet (Example 5); design: species or system mouse; details: for fasting glucose levels: low dose (25 mg/kg/day)
Procedure: Briefly, four groups were set up, each having six mice. Three of the groups included six wild-type PLA2 (+/+) mice in each group (eighteen mice total), and one of the groups included six genetically deficient PLA2 (−/−) mice. One of the wild-type groups was used as a wild-type control group, and was not treated with ILY-4001. The other two wild-type groups were treated with ILY-4001—one group at a lower dose (indicated as “L” in Table 1) of 25 mg/kg/day, and the other at a higher dose (indicated as “H” in Table 1) of 90 mg/kg/day. The group comprising the PLA2 (−/−) mice was used as a positive control group.
The experimental protocol used in this study was as follows. The four groups of mice, including wild type and isogenic PLA2 (−/−) C57BL/J mice were acclimated for three days on a low fat/low carbohydrate diet. After the three day acclimation phase, the animals were ? and serum samples taken to establish baseline plasma cholesterol, triglyceride, and glucose levels, along with baseline body weight. The mice in each of the treatment groups were then fed a high fat/high sucrose diabetogenic diet (Research Diets D12331). 1000 g of the high fat/high sucrose D12331 diet was composed of casein (228 g), DL-methionine (2 g), maltodextrin 10 (170 g), sucrose (175 g), soybean oil (25 g), hydrogenated coconut oil (333.5 g), mineral mix S10001 (40 g), sodium bicarbonate (10.5 g), potassium citrate (4 g), vitamin mix V10001 (10 g), and choline bitartrate (2 g). This diet was supplemented with ILY-4001 treatments such that the average daily dose of the compound ingested by a 25 g mouse was: 0 mg/kg/day (wild-type control group and PLA2 (−/−) control group); 25 mg/kg/day (low-dose wild-type treatment group), or 90 mg/kg/day (high-dose wild-type treatment group). The animals were maintained on the high fat/high sucrose diet, with the designated ILY-4001 supplementation, for a period of ten weeks.
Body weight measurements were taken for all animals in all treatment and control groups at the beginning of the treatment period and at 4 weeks and 10 weeks after initiation of the study. (See Example 5A). Blood draws were also taken at the beginning of the treatment period (baseline) and at 4 weeks and 10 weeks after initiation of the study, in order to determine fasting glucose (See Example 5B). Cholesterol and triglyceride levels were determined from blood draws taken at the beginning of the treatment (baseline) and at ten weeks. (See Example 5C).
In the study generally described above in Example 5, body weight measurements were taken for all animals in all treatment and control groups at the beginning of the treatment period and at 4 weeks and 10 weeks after initiation of the study.
In the study generally described above in Example 5, blood draws were taken at the beginning of the treatment period (baseline) and at 4 weeks and 10 weeks after initiation of the study, in order to determine fasting glucose.
In the study generally described above in Example 5, blood draws were taken at the beginning of the treatment period (baseline) and at 10 weeks after initiation of the study, in order to determine cholesterol and triglyceride levels.

human PLA2 IB enzyme = human PLA2 IB enzyme (Homo sapiens, UniProt P04054); details: pyrene substrate release from vesicles; Singer, Ghomashchi et al. 2002; read-out: IC50 value versus the human PLA2 IB enzyme; cited from earlier work
[3] = low and high doses (25 and 90 mg/kg/day), 10 weeks

Sequence of mouse PLA2 IB enzyme (Q9Z0Y2 23-146): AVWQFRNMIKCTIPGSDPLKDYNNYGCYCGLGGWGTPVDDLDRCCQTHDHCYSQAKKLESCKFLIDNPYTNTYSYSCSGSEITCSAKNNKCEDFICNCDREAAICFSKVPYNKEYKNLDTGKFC
Sequence of human PLA2 IB enzyme (P04054 23-148): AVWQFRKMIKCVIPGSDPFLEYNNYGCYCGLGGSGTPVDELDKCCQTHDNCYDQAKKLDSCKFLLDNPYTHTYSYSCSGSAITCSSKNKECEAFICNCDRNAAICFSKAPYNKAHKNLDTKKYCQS

Compound: Cc1c(C(=O)C(N)=O)c2c(OCC(=O)O)cccc2n1Cc1ccccc1-c1ccccc1 [ILY-4001, 2-(3-(2-amino-2-oxoacetyl)-1-(biphenyl-2-ylmethyl)-2-methyl-1H-indol-4-yloxy)acetic acid]
pIC50 (mouse PLA2 IB enzyme): ~6.82
stability at low pH (stability at low pH): stable
level of non-absorption from the GI tract into systemic circulation [1]: ~72%
absorption from the GI lumen (Caco-2 monolayers; based on Caco-2 assays and pharmokinetic studies): relatively low
body weight gain compared to wild-type control group ([2]; 25 mg/kg/d and 90 mg/kg/d in diet, week 4 and week 10): significantly reduced
plasma levels of cholesterol [2, 3]: substantially reduced
plasma levels of triglycerides [2, 3]: substantially reduced
fasting glucose levels ([2]; week four): moderately beneficial effect
fasting glucose levels ([2]; week ten): a beneficial effect was not observed
pIC50 (human PLA2 IB enzyme): ~6.70

apparent permeability (Caco-2 monolayers; Caco-2): around 2.82×10^−7+/−0.37×10^−7 cm/s
Compound: Lucifer Yellow
